From patent US20240130988A1, “Use of stilbene compounds in the preparation of anti-tumor drugs” (Guangzhou AnHao Pharmaceutical Technology CO., LTD., priority 2022, published 2024)
Marks after values point to notes of the source that are not given here.

What was measured:
human lung cancer A549 = assay: Human lung cancer A549 transplanted tumors in nude mice; type: in vivo, BALB/C nude mice; conditions: A549, 400 mg/kg ig × 14
Protocol: In this experiment, a human lung cancer A549 model transplanted into nude mice was selected to study the anti-tumor effect of test compounds. The mice were treated at a dosage of 400 mg/kg by gavage for 14 days, and the tumor inhibition rate against human lung cancer A549 was measured.
Preparation: The compound was prepared as the solution at the desired concentration with distilled water, prior to administration.
Animal strain: BALB/C nude mice (SPF grade), weight: 19-21 g, gender: male. Number of animals in each treatment group: 8; Number of animals in the control group: >12.
(§1) Lung cancer A549 tumor blocks with good growth were chosen and cut into uniform small pieces of 3 mm under sterile conditions, and then subcutaneously inoculated into the right armpit of each mouse with a cannula. These mice were divided into 9 groups, 8 mice for each treatment group, while more than 12 mice were included in the control group.
14 days after inoculation, the average volume of the tumor mass was about 100 mm^3. The animals were regrouped based on the size of the tumor, and the mice with tumors that were too large and too small were eliminated. For each group, the average volume of tumors was basically the same, and then the mice were treated with test compounds. The mice in the treatment groups were administered once a day by gavage for 14 successive days, at a dosage of 0.5 mL/20 g body weight; the mice in the control group were given the same volume of physiological saline. From the 14th day of inoculation, the long diameter a (mm) of the tumor, together with the perpendicular short diameter b (mm), was measured using a digital electronic caliper, twice a week. The calculation formula of tumor volume is: TV=ab^2/2, and the formula for calculating the relative tumor volume is RTV=Vt/Vo, wherein Vo denotes the tumor volume measured when the mice were divided into groups (i.e. d1), and Vt is the tumor volume from each measurement.
(§2) The result determination is based on the following formula: […]

[1] = system: nonfusion human umbilical vein endothelial cells (HUVEC); assay: TMT quantitative proteomics on nonfusion HUVEC; type: cell-based; conditions: 10 μM; for Differentially expressed proteins: more than 1.5 times or less than 0.67 times vs control; for Down-regulation / Up-regulation: number of proteins
Protocol: Nonfusion human umbilical vein endothelial cells (HUVEC) were used to simulate new tumor blood vessels, while confluent HUVECs were used to simulate normal blood vessels, to construct experimental models. Two different HUVECs were treated with the compound at the same dosage of 10 μM, to simulate the fusion cell state, and proteome samples were prepared. After preparation of peptide segments, the segments were labelled with TMT, and a quantitative proteomics analysis was carried out. The efficiency of TMT labeling was higher than 99.4%, and a total of 28372 peptide segments from 4934 proteins were characterized using a strict 1% FDR limit. Among them, 4909 quantifiable proteins were identified, indicating reliable quality. The nonfusion treatment groups and the fusion treatment groups were compared with their respective control groups, and the control group was used as a reference, with a significant difference of more than 1.5 times or less than 0.67 times as the protein score standard.
The total cell proteins of the samples in nonfusion cell groups and fusion cell groups were extracted separately, and 2 μg of protein samples were subjected to quality analysis, The quantitative proteomics experiments were carried out, and the protein concentration assay was performed by quantitative grayscale measurement.
Data analysis: The human protein database (Scientific name: Homo sapiens, 9606) was downloaded from UniProt, MaxQuant (v 1.5.5.1) search engine was used to search for the database. A total of 4934 proteins (4909 quantitative proteins) and 28372 peptide segments were identified by TMT quantitative proteomics experiments, with a labeling efficiency of more than 99%, and the complete digestion occupied 86.3%.

[2] = system: LLC (mouse lung cancer cells); assay: Enrichment of CD8+ cytotoxic T lymphocytes in tumor tissue, Lewis non-small cell lung cancer model of mice; type: in vivo; conditions: 400 mg/kg ip once a day for 10 days, flow cytometry
Protocol: LLC (mouse lung cancer cells) were a mouse Lewis lung cancer cells.
The modeling method for LLC cell lung cancer in mice was as follows:
LLC cells were cultured in the general medium containing 10% fetal bovine serum and 100 μg/mL of double antibody (penicillin±streptomycin), and then cultivated in a 37° C., 5% CO2 cell incubator for routine incubation. LLC cells, that had grown to logarithmic phase, were digested with 0.25% trypsin (containing EDTA) to form a cell suspension, which was centrifuged at 1000 rpm/min for 3 min. The supernatant was discarded, and cell precipitates were collected, that were resuspended in culture medium without serum and double antibody. The cell suspension was further centrifuged to adjust the volume under the same conditions with the aid of cell counting, so as to prepare a cell suspension at a concentration of […] was injected into the right abdomen of each mouse, to complete the inoculation of tumor cells. The tumor was allowed to grew about 10 days, and the volume reached around 100 mm^3, before the mice were treated with test compounds.
Drug preparation: compounds 1-13 of the present invention were respective prepared into an injection with injection water.
Experimental methods: The model mice with LLC cell lung cancer were treated by intraperitoneal administration of 400 mg/kg injection containing the compound of the present invention. The model mice were divided into a negative control group (model mice only receiving equal volume of injection water by intraperitoneal administration) and treatment groups (model mice receiving the injection prepared with the compound of the present invention by intraperitoneal administration). The intraperitoneal injection regimen was carried out by injecting once a day at the pre-determined time. Before administration, the mice were weighed, and then treated with the injection at a dosage of 10 mL/kg, After successive administration for 10 days, that is, on the 10th day after receiving treatment, the mice were sacrificed, and the subcutaneous tumors were stripped to detect the ratio of cytotoxic T lymphocyte antigen CD8^+ in tumor tissues of the negative group and the treatment group by flow cytometry.
CD8^+ tumor-infiltrating lymphocytes in tumor tissues were detected by flow cytometry. The specific steps were as follows:
The mice were sacrificed, and then the abdominal epidermis of the mice was cut open using ophthalmic scissors, to fully expose the subcutaneous tumors. The subcutaneous tumor tissues on the right side of the mouse's abdomen were gradually peeled off with tweezers and ophthalmic scissors. After rinsing with PBS, the stripped tumor tissues were cut into about 1 mm using ophthalmic scissors, and then placed in 3 mL of PBS buffer containing 100 μg/mL of hyaluronidase. A centrifuge tube containing a dispersed liquid was placed in a water bath and kept at 37° C. for 20 min. A pipette was used to blow and shake the digestive tumor tissues every 5 minutes to fully digest. The dispersed liquid containing undigested tumor tissues was filtered through a 70 μm stainless steel cell screen, and the remaining undigested tumor tissues were ground using a push rod of 20 mL syringe on 70 μm cell screen and rinsed 5 times with 1 mL of PBS while grinding. The cell suspension passing the cell screen was transferred to a 15 mL centrifuge tube, and centrifuged at 4000 rpm for 3 min. Then, cell precipitates were collected, to which was added 2 mL of red cell lysis buffer, and rested for 10 min, followed by centrifuging at 4000 rpm for 3 min. After washing with PBS, the cells were resuspended by adding 2-3 mL of PBS.
An appropriate amount of cell suspension was used as the sample for flow cytometry, and after counting, the cell suspension was adjusted to have a concentration of 5×10^6/mL. 100 μL of cell suspension was added to a test tube with a pipettor. […]

[3] = system: LLC (mouse lung cancer cells); assay: as above; type: in vivo; conditions: 400 mg/kg ip once a day for 10 days, CD8+ immunohistochemistry
[4] = system: human liver cancer QGY7703; assay: Human liver cancer QGY7703 transplanted tumor in nude mice; type: in vivo, BALB/C nude mice; design: key to RTV (d 18): RTV = Vt/Vo, tumor volume relative to volume at grouping (d1); conditions: QGY7703, 100 mg/kg iv × 14; for inhibition in vivo at 100 mg/kg: Mus musculus, QGY-7703, read-out: Tumor inhibitory rate %
Protocol: A human liver cancer QGY7703 model transplanted into nude mice was used in the experiment to investigate the anti-tumor effect of test compounds. The mice were intravenously injected at a dosage of 100 mg/kg for 14 days, and the tumor inhibition rate against human liver cancer QGY7703 was measured.
(§3) Preparation: The compound was prepared as the injection at the desired concentration with sterile normal saline, prior to administration.
Animal strain: BALB/C nude mice (SPF grade), weight: 19-21 g, gender: male. Number of animals in each treatment group: 8; number of animals in the control group: >12.
as §1, with “The” for “Lung cancer A549”, “blocks of human liver cancer QGY7703” for “blocks”, “were” for “were chosen and”
(§4) 14 days after inoculation, the average volume of the tumor block was about 100 mm^3. The animals were regrouped based on the size of the tumor, and the animals with tumors that were too large and too small were sifted out. For each group, the average volume of tumors was basically the same, and then the mice were initially treated with test compounds. The mice in the treatment groups were intravenously injected once a day for 14 days, at a dosage of 0.1 mL/20 g body weight; the mice in the control group were given the same volume of sterile normal saline. From the 14th day of inoculation, the long diameter a (mm) of the tumor, together with the perpendicular short diameter b (mm), was measured using a digital electronic caliper, twice a week. The calculation formula of tumor volume is: TV=ab^2/2, and the formula for calculating the relative tumor volume is RTV=Vt/Vo, wherein Vo denotes the tumor volume measured when the mice were divided into groups (i.e. d1), and Vt is the tumor volume from each measurement.
as §2

[5] = system: human gastric cancer MGC803; assay: Human gastric cancer MGC803 transplanted tumor in nude mice; type: in vivo, BALB/C nude mice; conditions: MGC803, 200 mg/kg ip × 14
Protocol: A human gastric cancer MGC803 model transplanted into nude mice was used in the experiment to investigate the anti-tumor effect of test compounds.
as §3
Animal strain: BALB/C nude mice (SPF grade), weight: 19-21 g, gender: male.
Number of animals in each treatment group: 8; number of animals in the control group: >12.
as §1, with “The” for “Lung cancer A549”, “blocks of human gastric cancer MGC803” for “blocks”, “were” for “were chosen and”
as §4, with “mice” for “mice in the treatment groups”, “intraperitoneally” for “intravenously”, “0.2” for “0.1”, “weight.” for “weight; the mice in the control group were given the same volume of sterile normal saline.”, “groups(i.e.” for “groups (i.e.”
as §2

Structure (SMILES)	RTV (d 22) (human lung cancer A549)	inhibition in vivo at 400 mg/kg (human lung cancer A549; Mus musculus, po, read-out: Tumor inhibitory rate %) [%]	Differentially expressed proteins [1]	Down-regulation [1]	Up-regulation [1]	The ratio of CD8^+ in total immune cells of tumor tissues (%) [2] [%]	The ratio of distribution area in tumor tissues (%) [3] [%]	The ratio of CD8^+ in total immune cells of tumor tissues (%) ([2]; 400 mg/kg)	inhibition in vivo at 100 mg/kg [4] [%]	RTV (d 18) [4]	The ratio of distribution area in tumor tissues (%) ([3]; 400 mg/kg)	RTV (d 18) [5]	Tumor inhibitory rate % [5]
COc1cc(/C(=C\c2cc(O)c(OC)c(Cl)c2)C(=O)O)cc(OC)c1OC [Compound 5, (E)-3-(3-chloro-5-hydroxy-4-methoxyphenyl)-2-(3,4,5-trimethoxyphenyl) acrylic acid]	5.73 ± 1.25	51.2	304	297	7	0.0833 ± 0.0107	7.438 ± 0.7610	–	–	–	–	–	–
COc1ccc(/C=C(/C(=O)O)c2cc(OC)c(OC)c(OC)c2)c(O)c1O [Compound 2, (E)-3-(2,3-dihydroxy-4-methoxyphenyl)-2-(3,4,5-trimethoxylphenyl)acrylic acid]	–	–	298	288	10	–	–	0.0823 ± 0.0112	64.9	4.51 ± 0.58	7.147 ± 0.7528	–	–
COc1cc(/C=C(/C(=O)O)c2cc(OC)c(OC)c(OC)c2)ccc1O [Compound 7, (E)-3-(4-hydroxy-3-methoxyphenyl)-2-(3,4,5-trimethoxyphenyl)acrylic acid]	–	–	289	281	8	0.0774 ± 0.0115	6.653 ± 0.7791	–	64	4.63 ± 0.75	–	4.46 ± 0.62	61.28^## %
